Source: patent US7419655B2, “Skin care products” (Kimberly-Clark Worldwide, Inc., priority 2002, dated 2008)
“Also recorded” adds a separate entry of the source.

Legend:
[1] = test system: human skin fibroblast cell line (normal human dermal fibroblasts, neonatal); test: Fibroblast proliferative response, 96-well Cell Titer 96 Aqueous One assay (Example 2, FIG. 2, Table 2); format: cell-based; conditions: for effect on cellular proliferation (in words): 5 and 10 ul, versus serum-free DMEM control, one-way ANOVA; for Mean (spectrophotometric absorbance at 490 nm) / Median (spectrophotometric absorbance at 490 nm): 28 hours incubation, n=5, Table 2
Procedure: A stock solution of CNA was prepared with chitosan (0.0297M) and equimolar amounts of ascorbic acid and niacinamide (0.01649M) in water. Test solutions of equimolar ascorbic acid and niacinamide (0.01649M) were prepared separately in water. All the compounds were tested at two doses, 5 and 10 ul with n=5. DMEM was used as a negative control (n=5). The proliferative response of CNA, ascorbic acid and niacinamide, on the human skin fibroblast cell line (Clonetics, Walkersville, Md., normal human dermal fibroblasts, neonatal) was measured in a 96-well assay system using serum-free DMEM (Dulbecco's Modified Eagle's Medium, Sigma Chemical Co.) as a control. Cells were seeded into 96 well plates at a concentration of 1×10^2 cells in 100 μl of DMEM containing 10% fetal bovine serum (FBS, Sigma Chemical Co., St. Louis, Mo.). Plates were incubated for 24 hours at 37° C. in a humidified 5% CO2 atmosphere. After incubation, the medium was aspirated and the wells were rinsed twice with 100 μl of serum-free DMEM. The final rinse was aspirated and 100 ul DMEM serum was added to each well before adding test compounds. All wells were incubated for 28 hours at 37° C. in a humidified, 5% CO2 atmosphere. After incubation, 20 μl of Cell Titer 96 Aqueous One Solution (Promega) was added to all wells. The plates were swirled gently and placed back in the incubator for 90 minutes and spectrophotometric absorbance was read at 490 nm. Statistical analysis of data was performed by using one-way ANOVA. P<0.05 is considered significant while P<0.001 is considered as very very significant.

[2] = test system: human skin fibroblast cell line (normal human dermal fibroblasts, neonatal); test: Fibroblast proliferative response, 96-well Cell Titer 96 Aqueous One assay (Example 1, FIG. 1, Table 1); format: cell-based; conditions: for Mean (spectrophotometric absorbance at 490 nm) / Median (spectrophotometric absorbance at 490 nm): 28 hours incubation, n=5, Table 1; for cell growth / cell density (OD), FIG. 1: control OD about 0.6
Procedure: A human skin fibroblast cell line was obtained from Clonetics (Walkersville, Md., normal human dermal fibroblasts, neonatal). Stock solutions of CNA were prepared with chitosan (0.0297M, degree of deacetylation 78.8%, Vanson Inc.) and equimolar amounts of ascorbic acid and niacinamide (0.01649M, Sigma Chemical Co.) in water. Test solutions of chitosan (0.0297M) and niacinamide ascorbate (0.01649M) were separately prepared. All the compounds were tested at two doses, 5 and 10 ul with n=5. DMEM was used as a negative control (n=5). The proliferative response of CNA, chitosan and NA, on the human skin fibroblast cell was measured in a 96-well assay system using serum-free DMEM (Dulbecco's Modified Eagle's Medium, Sigma Chemical Co.) as a control. Cells were seeded into 96 well plates at a concentration of 1×10^3 cells in 100 μl of DMEM containing 10% fetal bovine serum (FBS, Sigma Chemical Co., St. Louis, Mo.). Plates were incubated for 24 hours at 37° C. in a humidified 5% CO2 atmosphere. After incubation, the medium was aspirated and the wells were rinsed twice with 100 μl of serum-free DMEM. The final rinse was aspirated and 100 ul DMEM serum was added to each well before adding test compounds. All wells were incubated for 28 hours at 37° C. in a humidified, 5% CO2 atmosphere. After incubation, 20 μl of Cell Titer 96 Aqueous One Solution (Promega) was added to all wells. The plates were swirled gently and placed back in the incubator for 90 minutes and spectrophotometric absorbance was read at 490 nm. Statistical analysis of data was performed by using one-way ANOVA. P<0.05 is considered significant while P<0.001 is considered as very very significant.

[3] = group suffix 1 (doses were 5 and 10 ul)
[4] = group suffix 2 (doses were 5 and 10 ul)

Compound	effect on cellular proliferation (in words) [1]	Mean (spectrophotometric absorbance at 490 nm) [1, 3]	Median (spectrophotometric absorbance at 490 nm) [1, 3]	Mean (spectrophotometric absorbance at 490 nm) [1, 4]	Median (spectrophotometric absorbance at 490 nm) [1, 4]	effect on fibroblast growth / proliferation (in words) ([2]; 5 and 10 ul, versus serum-free DMEM control, one-way ANOVA)	Mean (spectrophotometric absorbance at 490 nm) ([2]; 5 ul dose)	Median (spectrophotometric absorbance at 490 nm) ([2]; 5 ul dose)	cell growth / cell density (OD), FIG. 1 ([2]; 5 μl)	Mean (spectrophotometric absorbance at 490 nm) ([2]; 10 ul dose)	Median (spectrophotometric absorbance at 490 nm) ([2]; 10 ul dose)	cell growth / cell density (OD), FIG. 1 ([2]; 10 μl)
O=C1O[C@H]([C@@H](O)CO)C(O)=C1O [Ascorbic acid, ascorbic acid]	some cell proliferating activity	0.4002	0.3990	0.4598	0.4510							
NC(=O)c1cccnc1.O=C1O[C@H]([C@@H](O)CO)C(O)=C1O [NA, niacinamide ascorbate]						appeared to inhibit cellular growth in a dose dependent manner; also recorded: appears depress fibroblast cell growth	0.5650	0.5630	about 0.58	0.4826	0.4870	about 0.50
NC(=O)c1cccnc1 [Niacinamide, niacinamide]	did not show any statistical difference	0.3108	0.3140	0.3048	0.3070							
